The target in assay [1] is T1, human XIAP_BIR3 domain purified protein (Homo sapiens, UniProt P98170).
T1 construct: purchased R & D
In words: XIAP binding inhibitory activity (HTRF, b-Smac ligand). The note with it: for IC50: second symbol of cell, read-out: XIAP binding inhibition IC50 value. In a few lines: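 HTRF competition between compound and C-terminally biotinylated Smac peptide AVPIAQK for His-tagged XIAP BIR3, both diluted to 90 nM before addition, in pH 7.5 HEPES/NaCl/BSA/Triton buffer. Eu-cryptate anti-His and streptavidin-XL665 added, ≥4 h at room temperature in the dark; inhibition % from 665/615 nm ratio versus no-compound wells.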
For orientation: Time-resolved FRET reads energy transfer from a long-lived donor to a nearby acceptor.

In assay [2] the target is T2, IRAK-M (Homo sapiens, UniProt Q9Y616).
T2 sequence (Q9Y616 1-596): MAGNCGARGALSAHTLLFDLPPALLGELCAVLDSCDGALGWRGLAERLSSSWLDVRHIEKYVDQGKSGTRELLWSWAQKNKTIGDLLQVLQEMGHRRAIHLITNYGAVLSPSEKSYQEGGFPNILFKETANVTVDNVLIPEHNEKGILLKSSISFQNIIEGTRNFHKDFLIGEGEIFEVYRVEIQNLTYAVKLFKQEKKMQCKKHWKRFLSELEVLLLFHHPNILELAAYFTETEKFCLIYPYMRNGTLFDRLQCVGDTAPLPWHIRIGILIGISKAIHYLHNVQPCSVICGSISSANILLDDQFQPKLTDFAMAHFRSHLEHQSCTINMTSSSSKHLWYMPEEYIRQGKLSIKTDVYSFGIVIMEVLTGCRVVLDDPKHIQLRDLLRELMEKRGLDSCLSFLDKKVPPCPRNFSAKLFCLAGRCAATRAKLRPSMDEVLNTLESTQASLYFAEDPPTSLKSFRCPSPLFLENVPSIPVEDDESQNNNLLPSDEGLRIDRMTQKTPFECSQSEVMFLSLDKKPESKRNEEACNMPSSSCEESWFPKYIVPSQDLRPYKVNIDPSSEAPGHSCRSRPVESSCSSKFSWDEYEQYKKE
In words: In vitro degradation activity of target protein (IRAK-M ELISA in THP1 cells). Type of assay: cell-based. On the set-up: host or cells: THP1 cells. The conditions noted are these: 24 hours, second symbol of cell, read-out: IRAK-M 50% degradation concentration (DC50 value). How it is done:
In vitro degradation activities of target protein of the example compounds were evaluated using Enzyme-linked immuno-sorbent assay (ELISA) by the following assay steps. THP1 cells (ATCC, TIB-202) were cultured in RPMI-1640 supplemented with 10% FBS, lx sodium pyruvate, lx HEPES, D-(+)-glucose and 1% penicillin/streptomycin. THP1 cells were seeded at a density of 1×10^6 cells/well in 24-well plate and treated with DMSO control or test compound, and then incubated for 24 hours. The cells were collected and lysed on ice for 30 minutes in lysis buffer (PBS containing 0.1% Triton X-100) containing a protease inhibitor cocktail (Roche, Cat #11836170001). The lysates were sonicated for 30 sec ON/30 sec OFF for ten cycles and centrifuged for 10 minutes at 13k rpm at 4° C. Protein concentrations were determined by the BCA assay (Sigma, Cat #QPBCA-1KT). The ELISA assay was performed using the Human IRAK3/IRAKM/IRAK-M ELISA Kit (LifeSpan BioSciences, Cat #LS-F35271), and the protein levels of IRAK-M were evaluated according to the kit protocol. As to the IRAK-M degradation rate of test compounds, protein degradation rate (%) when the concentration of the test compound is […] described as A≥75%, 50%≤B<75%, 25%≤C<50%, D<25%, or 50% degradation concentration (DC50 value) described as A<0.03 μM, 0.03 μM≤B<0.1 μM, 0.1 μM≤C<0.3 μM, 0.3 μM≤D<1 μM, is shown in the table below.
On the technique in general: ELISA stands for enzyme-linked immunosorbent assay.

Assay [3] deals with T2, IRAK-M. In words: IRAK-M binding inhibitory activity (KINOMEscan active site-dependent competitive assay). On the set-up: purchased Eurofins Discover X. The note with it: for remaining binding at 1 µM: concentration of the test compound 1 μM, first symbol of cell, read-out: IRAK-M binding inhibition activity % Ctrl; for IC50: second symbol of cell, read-out: IRAK-M binding inhibition IC50 value. The method in brief:
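Readout given as % Ctrl, with DMSO as 100% and a control compound as 0%, scaling the test compound signal between them. Binding to human IRAK-M was assessed by KINOMEscan competition at the kinase active site.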

Structures can show the parent of a compound that is named as a salt.

Usually IC50 stands for the midpoint of a concentration-inhibition curve. The term inhibition denotes the relative decrease from the control value, in per cent.

T1 sequence (P98170 252-356 limits assumed): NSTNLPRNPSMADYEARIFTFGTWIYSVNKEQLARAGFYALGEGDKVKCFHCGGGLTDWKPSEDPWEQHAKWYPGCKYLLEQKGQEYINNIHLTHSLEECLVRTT

For the compound `CN[C@@H](C)C(=O)N[C@H](C(=O)N1CCN(C(=O)c2c(Cl)c3ccccc3n2CC(=O)N2CCC[C@H]2COc2cc(CN3CCC(Oc4ccnc5ccsc45)CC3)on2)CC1)C1CCCCC1` [Example 38, (S)-N-((S)-2-(4-(3-chloro-1-(2-oxo-2-((S)-2-(((5-((4-(thieno[3,2-b]pyridin-7-yloxy)piperidin-1-yl)methyl)isoxazol-3-yl)oxy)methyl)pyrrolidin-1-yl)ethyl)-1H-indole-2-carbonyl)piperazin-1-yl)-1-cyclohexyl-2-oxoethyl)-2-(methylamino)propanamide], in assay [1], the IC50 was 3000 to 30000 nM. In addition, the DC50 on IRAK-M [2] lay in the range of 300 to 1000 nM. Moreover, the remaining binding at 1 µM on IRAK-M [3] lay within 25 to 50%.

On to `CN[C@@H](C)C(=O)N[C@H](C(=O)N1CCN(C(=O)c2cc3cc(F)c(F)cc3n2CC(=O)N2CCC[C@H]2COc2cc(CN3CCC(Oc4ccnc5ccsc45)CC3)on2)[C@@H](C)C1)C1CCC(F)(F)CC1` [Example 49, (S)-N-((S)-2-((S)-4-(5,6-difluoro-1-(2-oxo-2-((S)-2-(((5-((4-(thieno[3,2-b]pyridin-7-yloxy)piperidin-1-yl)methyl)isoxazol-3-yl)oxy)methyl)pyrrolidin-1-yl)ethyl)-1H-indole-2-carbonyl)-3-methylpiperazin-1-yl)-1-(4,4-difluorocyclohexyl)-2-oxoethyl)-2-(methylamino)propanamide], for which, in assay [1], the IC50 fell in the range of 3000 to 30000 nM. Moreover, the DC50 on IRAK-M [2] is 30 to 100 nM.

With `CN[C@@H](C)C(=O)N[C@H](C(=O)N1CCN(C(=O)c2cc3cc(F)c(F)cc3n2CC(=O)N2CCC[C@H]2COc2cc(CN3CCC(Oc4ccnc5ccsc45)CC3)on2)CC1)C1CCC(F)(F)CC1` [Example 48, (S)-N-((S)-2-(4-(5,6-difluoro-1-(2-oxo-2-((S)-2-(((5-((4-(thieno[3,2-b]pyridin-7-yloxy)piperidin-1-yl)methyl)isoxazol-3-yl)oxy)methyl)pyrrolidin-1-yl)ethyl)-1H-indole-2-carbonyl)piperazin-1-yl)-1-(4,4-difluorocyclohexyl)-2-oxoethyl)-2-(methylamino)propanamide], the 50% inhibitory concentration (IC50) in assay [1] was 3000 to 30000 nM. Also, the DC50 at IRAK-M [2] was 100 to 300 nM.

On to `CN[C@@H](C)C(=O)N[C@H](C(=O)N1CCN(C(=O)c2c(C(=O)NCCOCCOCCOc3cc(CN4CCC(Oc5ccnc6ccsc56)CC4)n(C)n3)c3cc(F)c(F)cc3n2C)CC1)C1CCCCC1` [Example 7, 2-(4-((S)-2-cyclohexyl-2-((S)-2-(methylamino)propanamido)acetyl)piperazine-1-carbonyl)-5,6-difluoro-1-methyl-N-(2-(2-(2-((1-methyl-5-((4-(thieno[3,2-b]pyridin-7-yloxy)piperidin-1-yl)methyl)-1H-pyrazol-3-yl)oxy)ethoxy)ethoxy)ethyl)-1H-indole-3-carboxamide], for which the IC50 in assay [1] was 300 to 3000 nM. For the same compound, the remaining binding at 1 µM on IRAK-M [3] lay in the range of 25 to 50%.

Consider `CN[C@@H](C)C(=O)N[C@H](C(=O)N1CCN(C(=O)c2c(C(=O)N(C)CCOCCOCCOc3cc(CN4CCC(Oc5ccnc6ccsc56)CC4)on3)c3cc(F)ccc3n2C)CC1)C1CCCCC1` [Example 3, 2-(4-((S)-2-cyclohexyl-2-((S)-2-(methylamino)propanamido)acetyl)piperazine-1-carbonyl)-5-fluoro-N,1-dimethyl-N-(2-(2-(2-((5-((4-(thieno[3,2-b]pyridin-7-yloxy)piperidin-1-yl)methyl)isoxazol-3-yl)oxy)ethoxy)ethoxy)ethyl)-1H-indole-3-carboxamide], for which the IC50 in assay [1] was in the range of 300 to 3000 nM; on IRAK-M [3] it was 100 to 300 nM.

In the case of `CN[C@@H](C)C(=O)N[C@H](C(=O)N1CCN(C(=O)c2cc3cc(F)ccc3n2CC(=O)N2CCOC[C@H]2COc2cc(CN3CCC(Oc4ccnc5ccsc45)CC3)on2)[C@@H](C)C1)C1CCCCC1` [Example 47, (S)-N-((S)-1-cyclohexyl-2-((S)-4-(5-fluoro-1-(2-oxo-2-((S)-3-(((5-((4-(thieno[3,2-b]pyridin-7-yloxy)piperidin-1-yl)methyl)isoxazol-3-yl)oxy)methyl)morpholino)ethyl)-1H-indole-2-carbonyl)-3-methylpiperazin-1-yl)-2-oxoethyl)-2-(methylamino)propanamide], the inhibition at 3 µM in assay [1] (concentration of the test compound 3 μM, first symbol of cell, read-out: XIAP binding inhibition rate) was over 25%. The IC50 at IRAK-M [3] was 1000 to 3000 nM.

For the compound `C[C@@H]1CN(CC(=O)N2CCN(C(=O)c3cc4cc(F)c(F)cc4n3C)C[C@H]2C)[C@@H](COCCOCCOCCOc2cc(CN3CCC(Oc4ccnc5ccsc45)CC3)on2)CN1` [Example 17, 1-((R)-4-(5,6-Difluoro-1-methyl-1H-indole-2-carbonyl)-2-methylpiperazin-1-yl)-2-((2R,5R)-5-methyl-2-((2-(2-(2-((5-((4-(thieno[3,2-b]pyridin-7-yloxy)piperidin-1-yl)methyl)isoxazol-3-yl)oxy)ethoxy)ethoxy)ethoxy)methyl)piperazin-1-yl)ethan-1-one hydrochloride], the IC50 in assay [1] was under 300 nM; on IRAK-M [3] it was 300 to 1000 nM.

Consider `CN[C@@H](C)C(=O)N[C@H](C(=O)N1CCN(C(=O)c2c(C(=O)NCCOCCOCCOc3cc(C(C)N4CCC(Oc5ccnc6cc(C)sc56)CC4)on3)c3cc(F)c(F)cc3n2C)CC1)C1CCCCC1` (stereo partly drawn) [Example 9, 2-(4-((S)-2-cyclohexyl-2-((S)-2-(methylamino)propanamido)acetyl)piperazine-1-carbonyl)-5,6-difluoro-1-methyl-N-(2-(2-(2-((5-(1-(4-((2-methylthieno[3,2-b]pyridin-7-yl)oxy)piperidin-1-yl)ethyl)isoxazol-3-yl)oxy)ethoxy)ethoxy)ethyl)-1H-indole-3-carboxamide], for which the values for the IC50 (in assay [1]; at IRAK-M [3]) were 300 to 3000 nM and 30 to 100 nM, respectively.

As for `CN[C@@H](C)C(=O)N[C@H](C(=O)N1CCN(C(=O)c2c(C(=O)NCCOCCOCCOc3cc(CN4CCC(Oc5ccnc6ccsc56)CC4)on3)c3cc(F)c(F)cc3n2C)CC1)C1CCCCC1` [Example 5, 2-(4-((S)-2-cyclohexyl-2-((S)-2-(methylamino)propanamido)acetyl)piperazine-1-carbonyl)-5,6-difluoro-1-methyl-N-(2-(2-(2-((5-((4-(thieno[3,2-b]pyridin-7-yloxy)piperidin-1-yl)methyl)isoxazol-3-yl)oxy)ethoxy)ethoxy)ethyl)-1H-indole-3-carboxamide], the values for the IC50 (in assay [1]; on IRAK-M [3]) were 300 to 3000 nM and 300 to 1000 nM, respectively.

In the case of `CN[C@@H](C)C(=O)N[C@H](C(=O)N1CCN(C(=O)c2c(C(=O)NCCOCCOCCOc3cc(CN4CCC(Oc5ccnc6cc(C)sc56)CC4)on3)c3cc(F)c(F)cc3n2C)CC1)C1CCCCC1` [Example 8, 2-(4-((S)-2-cyclohexyl-2-((S)-2-(methylamino)propanamido)acetyl)piperazine-1-carbonyl)-5,6-difluoro-1-methyl-N-(2-(2-(2-((5-((4-((2-methylthieno[3,2-b]pyridin-7-yl)oxy)piperidin-1-yl)methyl)isoxazol-3-yl)oxy)ethoxy)ethoxy)ethyl)-1H-indole-3-carboxamide], the IC50 in assay [1] lay in the range of 300 to 3000 nM; at IRAK-M [3], 30 to 100 nM.

Source of the values: US20220402935A1, “HETEROCYCLIC COMPOUND” (FIMECS, INC., priority 2019, published 2022).
